# Results reported in patent publication US9789200B2, “Therapeutic use of new pharmaceutical preparations containing antitumoral drugs bound to hyaluronic acid in the treatment of neoplasias” (FIDIA FARMACEUTICI S.P.A., priority 2008, dated 2017).
# Legend:
# [1] = system: DHD/K12/Trb peritoneal carcinomatosis; assay: anti-tumoral effect in vivo, peritoneal carcinomatosis and tumoral ascites induced by DHD/K12/Trb in BDIX rats; parameters: species or system rat; conditions: 40 mg/kg intraperitoneally
# Description: Animals treated: 36 male rats BDIX 7 weeks' old (about 200 g) were divided according to experimental criteria into the following groups (each group consists of 12 animals):
# 1. Control Group: inoculum DHD/K12/trb.
# 2. CPT-11 Group: inoculum DHD/K12/trb+treatment CTP-11 40 mg/Kg intraperitoneally.
# After 14 days of stabling, 1×10^6 DHD/K12/trb cells per rat were inoculated intraperitoneally. After 7 days the therapeutic treatment envisaged was initiated, consisting of 4 therapy cycles. The sacrifice of the animals was established 7 days after the last pharmacological treatment. The animals were evaluated once a week for the appearance of possible signs of toxicity, by measuring the body weight, and for the possible appearance of ascites. At the moment of sacrifice an intracardiac sampling was effected in all the animals and the haematological toxicity due to the pharmacological treatment was evaluated. The tumours and ascites were removed and measured. The tissues removed were fixed in formalin for histological and immunohistochemical evaluation.
# [2] = system: Adenocarcinoma cells of the colon of a rat DHD/K12/Trb; assay: cell vitality, Tripan blue exclusion method; format: cell-based; conditions: 24 h of treatment, ONCOFID-S derivatized at 3.5% w/w (Example 2)
# From the text: Adenocarcinoma cells of the colon of a rat DHD/K12/Trb expressing the receptor for HA CD44
# Adenocarcinoma cells of the colon of a rat DHD/K12/Trb.
# [3] = system: Adenocarcinoma cells of the colon of a rat DHD/K12/Trb; assay: cytofluorometric analysis of cell phases (DNA content, propidium iodide) and wash out test; format: cell-based; conditions: 0.5 μg/ml, 24 h of treatment; ONCOFID-S 3.5% w/w
# Description: Adenocarcinoma cells of the colon of a rat DHD/K12/Trb
# As described for examples 8 and 9.
# The effect of the ONCOFID-S conjugate (at a concentration of 0.5 μg/ml) was determined using an analysis of the cytofluorometric type; after 24 h of pharmacological treatment, the cell phases are identified with FACS-Scan (Becton Dickinson) by cytofluorometric, analysis of the DNA content after colouring the cells with propidium iodide.
# In order to evaluate whether the data obtained persist with time, the Wash out test was effected in which, after 48 h of treatment, the culture medium is substituted with fresh medium without treatment: the cell phases were then defined again at the point defined as TO and, after 24 h of culture, T24.
# [4] = system: DHD/Trb cells; assay: fluorescence microscopy of intracellular distribution/expression of E-cadherin, β-catenin, APC, GSK-3β and CK20; format: cell-based, rat; conditions: non-conjugated SN38
# From the text: Due to the importance of the role of regulating the β-catenin in the formation and progression of colon-rectal carcinomas, it was verified whether the treatment with Oncofid-S is capable of modifying the intracellular expression and distribution of the molecules involved in the control process of the above protein, as previously described. The effect of the treatment with ONCOFID-S on the intracellular distribution of E-cadherin, β-catenin, APC e GSK-3β in the DHD/Trb cells was therefore analyzed by means of fluorescence microscopy. Specific antibodies were used for the above proteins, visualizing them with the use of secondary antibodies bound to fluorochromes such as rodamin and fluoroescein.
Structure (SMILES),animals with bloody ascites [1],average reduction in the tumoral mass ([1]; vs control),IC50 [2],gap1 and S phases of the cell cycle [3],"modifications relating to cell differentiation (APC/GSK-3β, β-catenin, E-cadherin, CK20) [4]"
"CCc1c2c(nc3ccc(OC(=O)N4CCC(N5CCCCC5)CC4)cc13)-c1cc3c(c(=O)n1C2)COC(=O)[C@]3(O)CC [CPT-11, Irinotecan]",83%,62%,,,
CCc1c2c(nc3ccc(O)cc13)-c1cc3c(c(=O)n1C2)COC(=O)[C@]3(O)CC [SN38],,,1.4 µg/mL,increases both the first phase and the S phase,not revealed
